{"source": "patent US20230364084A1", "about": "“METHODS FOR PREVENTING OR TREATING CONDITIONS RELATED TO PIKFYVE ACTIVITY” (The Regents of the University of Michigan, priority 2020, published 2023)", "key": {"[1]": {"test_system": "enzalutamide-resistant LNCaP-AR and CWR-R1 cells", "experiment": "long-term survival assay in enzalutamide-resistant cell lines", "assay_type": "cell-based, human", "details": "LNCaP-AR and CWR-R1, long-term survival two weeks", "description": "FIG. 1: ESK981 inhibits the growth of diverse preclinical models of prostate cancer and is associated with a unique vacuolization morphology. • (a) The percentage viabilities of DU145 cells treated with 300 nM ESK981 or 167 other tyrosine kinase inhibitors when compared to a vehicle control. The top five most inhibitory compounds, as well as cabozantinib and crizotinib (highlighted in orange), and their respective targets are listed in the table. […] Long-term survival (two weeks) was assayed by absorbance of crystal violet at OD590. • (e) VCaP-RFP cells were cultured for three days in ultralow attachment plates to form 3D tumor spheroids prior to the indicated drug treatments. […] Fluorescence intensity of 3D spheroids was measured by IncuCyte ZOOM. • (f) Castration-resistant VCaP tumors were established subcutaneously in castrated SCID mice, and mice were randomized into three groups, which received vehicle, 30 mg/kg, or 60 mg/kg ESK981 by oral gavage once per day for the indicated dosing schedule. Tumor volumes were monitored by a digital caliper twice per week. Data were analyzed by unpaired t test and presented as mean±SEM. *p<0.05; **p<0.01. • (g) AR^+ prostate patient-derived xenograft (PDX) MDA-PCa-146-12 were implanted subcutaneously in non-castrated SCID mice, and mice were randomized into two groups receiving either once daily vehicle or 30 mg/kg ESK981 for five days each week. […]"}, "VCaP cells": {"test_system": "VCaP cells", "experiment": "human cytokine array of conditioned medium", "assay_type": "cell-based", "details": "VCaP conditioned media, 300 nM, 24 hours", "description": "Cells were seeded in 6-well plates, and conditioned medium was collected after 24 hours of drug incubation. Cytokine expression was determined by proteome profiler mouse XL cytokine array (Cat No. ARY028, R&D System) or proteome profiler human XL cytokine array kit (Cat No. ARY022, R&D System) according to the manufacturer's instructions."}, "[2]": {"test_system": "DU145 prostate cancer cells", "experiment": "cell viability screen with a 167-compound tyrosine kinase inhibitor library", "assay_type": "cell-based, human", "description": "FIG. 1: ESK981 inhibits the growth of diverse preclinical models of prostate cancer and is associated with a unique vacuolization morphology. • (a) The percentage viabilities of DU145 cells treated with 300 nM ESK981 or 167 other tyrosine kinase inhibitors when compared to a vehicle control. The top five most inhibitory compounds, as well as cabozantinib and crizotinib (highlighted in orange), and their respective targets are listed in the table. ESK981 is highlighted in red. • (b) Morphological differences of nuclear-restricted RFP-expressing DU145 cells treated with 300 nM ESK981, crizotinib, or cabozantinib. • (c) A long-term survival assay was used to calculate the half-maximum inhibitory concentration (IC50) after two weeks of incubation with the serial dilutions of indicated drugs. (Top) Long-term survival assays of VCaP prostate cancer cells exposed to MTKIs. (Bottom) IC50 of ESK981, crizotinib, and cabozantinib in a panel of prostate cancer cell lines. • (d) ESK981 was effective against enzalutamide (Enza)-resistant cell lines. […] Long-term survival (two weeks) was assayed by absorbance of crystal violet at OD590. • (e) VCaP-RFP cells were cultured for three days in ultralow attachment plates to form 3D tumor spheroids prior to the indicated drug treatments. […] Fluorescence intensity of 3D spheroids was measured by IncuCyte ZOOM. • (f) Castration-resistant VCaP tumors were established subcutaneously in castrated SCID mice, and mice were randomized into three groups, which received vehicle, 30 mg/kg, or 60 mg/kg ESK981 by oral gavage once per day for the indicated dosing schedule. Tumor volumes were monitored by a digital caliper twice per week. Data were analyzed by unpaired t test and presented as mean±SEM. *p<0.05; **p<0.01. • (g) AR^+ prostate patient-derived xenograft (PDX) MDA-PCa-146-12 were implanted subcutaneously in non-castrated SCID mice, and mice were randomized into two groups receiving either once daily vehicle or 30 mg/kg ESK981 for five days each week. […] Tumor volumes were monitored twice per week. […]"}, "VEGFR-2 (KDR)": {"target": "VEGFR-2 (KDR) (Homo sapiens, UniProt P35968)", "sequence (P35968 20-1356, species assumed)": "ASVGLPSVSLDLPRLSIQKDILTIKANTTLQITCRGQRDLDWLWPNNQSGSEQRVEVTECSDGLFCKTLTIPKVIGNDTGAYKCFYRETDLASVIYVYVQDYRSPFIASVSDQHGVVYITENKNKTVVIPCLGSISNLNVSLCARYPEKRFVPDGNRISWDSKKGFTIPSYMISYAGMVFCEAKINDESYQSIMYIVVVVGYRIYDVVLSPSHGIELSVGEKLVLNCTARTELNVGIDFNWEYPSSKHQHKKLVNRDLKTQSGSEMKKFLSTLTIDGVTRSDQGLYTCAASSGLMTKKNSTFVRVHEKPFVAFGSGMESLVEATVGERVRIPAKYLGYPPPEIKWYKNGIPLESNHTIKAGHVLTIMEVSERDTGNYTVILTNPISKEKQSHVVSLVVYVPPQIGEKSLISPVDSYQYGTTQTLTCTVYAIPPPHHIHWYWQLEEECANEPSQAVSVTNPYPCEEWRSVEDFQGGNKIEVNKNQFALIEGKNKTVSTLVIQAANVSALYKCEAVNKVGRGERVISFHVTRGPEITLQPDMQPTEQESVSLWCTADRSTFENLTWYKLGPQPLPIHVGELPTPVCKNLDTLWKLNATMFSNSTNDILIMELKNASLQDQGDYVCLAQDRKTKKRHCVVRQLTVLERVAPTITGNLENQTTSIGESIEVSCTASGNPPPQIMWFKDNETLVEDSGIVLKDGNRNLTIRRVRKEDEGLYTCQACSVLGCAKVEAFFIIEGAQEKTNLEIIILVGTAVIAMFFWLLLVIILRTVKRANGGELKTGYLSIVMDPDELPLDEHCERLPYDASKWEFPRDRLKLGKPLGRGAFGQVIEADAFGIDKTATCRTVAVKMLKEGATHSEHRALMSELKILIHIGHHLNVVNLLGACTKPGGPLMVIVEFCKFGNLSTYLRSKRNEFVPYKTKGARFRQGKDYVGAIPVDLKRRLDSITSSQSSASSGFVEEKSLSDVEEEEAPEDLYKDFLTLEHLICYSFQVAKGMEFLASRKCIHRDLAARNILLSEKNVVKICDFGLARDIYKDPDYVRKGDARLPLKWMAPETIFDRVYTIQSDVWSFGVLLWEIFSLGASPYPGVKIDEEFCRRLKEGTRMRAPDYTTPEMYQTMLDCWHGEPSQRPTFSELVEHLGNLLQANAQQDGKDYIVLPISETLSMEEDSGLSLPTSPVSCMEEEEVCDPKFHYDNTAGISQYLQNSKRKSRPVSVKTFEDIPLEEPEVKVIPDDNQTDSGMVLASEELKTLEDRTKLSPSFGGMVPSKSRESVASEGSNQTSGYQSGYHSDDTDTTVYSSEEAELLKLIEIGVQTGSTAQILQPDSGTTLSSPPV", "details": "cited from earlier work"}, "[3]": {"experiment": "toxicity evaluation in mice (body weight, serum chemistry, organ histology)", "assay_type": "in vivo, mouse", "description": "To determine whether ESK981-mediated growth inhibition translated into anti-tumor effects, the efficacy of ESK981 in blocking prostate cancer growth in mouse xenograft models was assessed. VCaP cells were chosen for initial experiments because this cell line harbors the TMPRSS2:ERG gene fusion and AR amplification, both of which are frequent molecular aberrations in patients with advanced CRPC^29. A castration-resistant VCaP tumor-bearing xenograft mouse model was generated to mimic disease progression in human patients (FIG. 3a).\nWhole blood was collected using BD Microtainer SST tubes, and serum was isolated by centrifugation at 7000 rpm for 10 minutes. Sera were submitted to the University of Michigan ULAM Pathology Cores for Animal Research for liver and renal chemistry analysis."}, "[4]": {"test_system": "autophagosomes in LNCaP, VCaP and DU145 cells", "experiment": "CYTO-ID autophagosome detection", "assay_type": "cell-based, human", "details": "24 hours", "description": "10,000 cells were plated in 96-well plates and incubated with 300 nM of the various compounds for 24 hours. Autophagy activities were detected with CYTO-ID® Autophagy detection kit (Cat No. ENZ-KIT175, Enzo Life Science) according to the manufacturer's instructions, with fluorescence intensity measured on a TECAN M1000 plate reader. Autophagosome induction factor was calculated according to the manufacturer's instructions."}}}
{"compound": "CC(C)Cn1c2ccc(Nc3ncccn3)cc2c2c3c(c4c(c21)CCc1nn(C)cc1-4)C(=O)NC3", "note": "[ESK981, 13-isobutyl-4-methyl-10-(pyrimidin-2-ylamino)-1,2,4,7,8,13-hexahydro-6H-indazolo[5,4-a]pyrrolo[3,4-c]carbazol-6-one]", "values": [{"measurement": "efficacy in enzalutamide-resistant cell lines", "setting": "[1]", "result": "remained efficacious"}, {"measurement": "cytokines induced (array of 105 cytokines)", "setting": "VCaP cells", "result": "significantly induced only CXCL10 and, to a lesser extent, CCL2"}, {"measurement": "growth inhibition (cell viability)", "setting": "[2]; 300 nM", "result": "potent growth inhibition"}, {"measurement": "cytoplasmic vacuolization morphology", "setting": "[2]; among the 167 compounds tested", "result": "uniquely triggered a cytoplasmic vacuolization morphology"}, {"measurement": "activity against kinase", "setting": "VEGFR-2 (KDR)", "result": "potent activity"}, {"measurement": "tissue vacuolization in major organs", "setting": "[3]; H&E staining of organs of ESK981-treated mice", "result": "no major organs were found to have the same tissue vacuolization morphology"}, {"measurement": "body weight loss", "setting": "[3]; VCaP tumor-bearing mice", "result": "within the range of tolerance"}, {"measurement": "tolerability in mice", "setting": "[3]; body weight, liver and kidney serum chemistry, histology of major organs", "result": "well-tolerated"}, {"measurement": "rank in autophagosome induction among compound libraries", "setting": "[4]; DU145 cells, 300 nM, vs 154 autophagy-related compounds and 167 tyrosine kinase inhibitors", "result": "highest potency at inducing autophagosome levels"}, {"measurement": "autophagosome signals (CYTO-ID fluorescence intensity)", "setting": "[4]; LNCaP, VCaP and DU145 cells, increasing concentrations", "result": "dose-dependent induction of autophagosome signals"}, {"measurement": "level of autophagosome induction compared with rapamycin", "setting": "[4]; VCaP and LNCaP cells", "result": "higher than a known autophagy activator, the mTOR inhibitor rapamycin"}]}
